From ChEMBL document CHEMBL3232945 (Eur J Med Chem, 2014)

Assays:
[1] = test system: Rattus norvegicus; experiment: Toxicity in […] normotensive Wistar rat assessed as mean arterial pressure at 40 mg/kg, ip after 60 mins (reference value: 95.07 +/- 1.973 mmHg); assay type: organism-based, Artery; design: dose 40 mg/kg, route intraperitoneal; settings: in vivo, 1 h
[2] = test system: Rattus norvegicus; experiment: Antihypertensive activity in Wistar rat assessed as mean arterial pressure at 40 mg/kg, ip measured immediately at 0 min (reference value: 194.08 +/- 1.962 mmHg); assay type: functional, Artery; settings: route intraperitoneal
[3] = test system: Rattus norvegicus; experiment: Antihypertensive activity in Wistar rat assessed as mean arterial pressure at 40 mg/kg, ip after 15 mins (reference value: 195.68 +/- 1.623 mmHg); assay type: functional, Artery; settings: route intraperitoneal
[4] = test system: Rattus norvegicus; experiment: Antihypertensive activity in Wistar rat assessed as mean arterial pressure at 40 mg/kg, ip after 30 mins (reference value: 194.72 +/- 1.002 mmHg); assay type: functional, Artery; settings: route intraperitoneal
[5] = test system: Rattus norvegicus; experiment: Antihypertensive activity in Wistar rat assessed as mean arterial pressure at 40 mg/kg, ip after 45 mins (reference value: 193.96 +/- 0.865 mmHg); assay type: functional, Artery; settings: route intraperitoneal
[6] = test system: Rattus norvegicus; experiment: Antihypertensive activity in Wistar rat assessed as mean arterial pressure at 40 mg/kg, ip after 60 mins (reference value: 195.11 +/- 0.531 mmHg); assay type: functional, Artery; settings: route intraperitoneal
[7] = test system: Rattus norvegicus; experiment: Toxicity in anesthetized-normotensive Wistar rat assessed as heart rate at 40 mg/kg, ip measured immediately at 0 min (reference value: 316.62 +/- 9.643 bpm); assay type: organism-based; design: dose 40 mg/kg, route intraperitoneal; settings: in vivo, 0 h
[8] = test system: Rattus norvegicus; experiment: Toxicity in anesthetized-normotensive Wistar rat assessed as heart rate at 40 mg/kg, ip after 15 mins (reference value: 313.93 +/- 9.912 bpm); assay type: organism-based; design: dose 40 mg/kg, route intraperitoneal; settings: in vivo, 0.25 h
[9] = test system: Rattus norvegicus; experiment: Toxicity in anesthetized-normotensive Wistar rat assessed as heart rate at 40 mg/kg, ip after 30 mins (reference value: 317.68 +/- 7.631 bpm); assay type: organism-based; design: dose 40 mg/kg, route intraperitoneal; settings: in vivo, 0.5 h
[10] = test system: Rattus norvegicus; experiment: Toxicity in anesthetized-normotensive Wistar rat assessed as heart rate at 40 mg/kg, ip after 45 mins (reference value: 316.82 +/- 8.452 bpm); assay type: organism-based; design: dose 40 mg/kg, route intraperitoneal; settings: in vivo, 0.75 h
[11] = test system: Rattus norvegicus; experiment: Toxicity in anesthetized-normotensive Wistar rat assessed as heart rate at 40 mg/kg, ip after 60 mins (reference value: 314.96 +/- 9.442 bpm); assay type: organism-based; design: dose 40 mg/kg, route intraperitoneal; settings: in vivo, 1 h
[12] = test system: Rattus norvegicus; experiment: Antiarrhythmic activity in barium chloride-induced Wistar rat assessed as increase in appearance time of arrhythmia at 40 mg/kg, ip administered 60 mins before barium chloride challenge (reference value: 129.4 +/- 4.373 sec); assay type: functional, Heart; settings: route intraperitoneal
[13] = test system: Rattus norvegicus; experiment: Antiarrhythmic activity in barium chloride-induced Wistar rat assessed as increase in mortality time at 40 mg/kg, ip administered 60 mins before barium chloride challenge (reference value: 682.8 +/- 9.656 secs); assay type: functional, Heart; settings: route intraperitoneal
[14] = test system: Rattus norvegicus; experiment: Toxicity in anaesthetized-Wistar rat assessed as P-Q ECG interval at 40 mg/kg, ip measured immediately at 0 min (reference value: 52.4 +/- 0.927 ms); assay type: organism-based; design: dose 40 mg/kg, route intraperitoneal; settings: in vivo, 0 h
[15] = test system: Rattus norvegicus; experiment: Toxicity in anaesthetized-Wistar rat assessed as QRS ECG interval at 40 mg/kg, ip measured immediately at 0 min (reference value: 19.6 +/- 1.142 ms); assay type: organism-based; design: dose 40 mg/kg, route intraperitoneal; settings: in vivo, 0 h
[16] = test system: Rattus norvegicus; experiment: Toxicity in anaesthetized-Wistar rat assessed as Q-T ECG interval at 40 mg/kg, ip measured immediately at 0 min (reference value: 78.8 +/- 1.030 ms); assay type: organism-based; design: dose 40 mg/kg, route intraperitoneal; settings: in vivo, 0 h
[17] = test system: Rattus norvegicus; experiment: Toxicity in anaesthetized-Wistar rat assessed as P-Q ECG interval at 40 mg/kg, ip after 15 mins (reference value: 52.2 +/- 1.158 ms); assay type: organism-based; design: dose 40 mg/kg, route intraperitoneal; settings: in vivo, 0.25 h
[18] = test system: Rattus norvegicus; experiment: Toxicity in anaesthetized-Wistar rat assessed as QRS ECG interval at 40 mg/kg, ip after 15 mins (reference value: 18.9 +/- 1.563 ms); assay type: organism-based; design: dose 40 mg/kg, route intraperitoneal; settings: in vivo, 0.25 h
[19] = test system: Rattus norvegicus; experiment: Toxicity in anaesthetized-Wistar rat assessed as Q-T ECG interval at 40 mg/kg, ip after 15 mins (reference value: 79.4 +/- 1.270 ms); assay type: organism-based; design: dose 40 mg/kg, route intraperitoneal; settings: in vivo, 0.25 h
[20] = test system: Rattus norvegicus; experiment: Toxicity in anaesthetized-Wistar rat assessed as P-Q ECG interval at 40 mg/kg, ip after 30 mins (reference value: […] +/- 0.927 ms); assay type: organism-based; design: dose 40 mg/kg, route intraperitoneal; settings: in vivo, 0.5 h
[21] = test system: Rattus norvegicus; experiment: Toxicity in anaesthetized-Wistar rat assessed as QRS ECG interval at 40 mg/kg, ip after 30 mins (reference value: 19.9 +/- 1.393 ms); assay type: organism-based; design: dose 40 mg/kg, route intraperitoneal; settings: in vivo, 0.5 h
[22] = test system: Rattus norvegicus; experiment: Toxicity in anaesthetized-Wistar rat assessed as Q-T ECG interval at 40 mg/kg, ip after 30 mins (reference value: 78.3 +/- 0.860 ms); assay type: organism-based; design: dose 40 mg/kg, route intraperitoneal; settings: in vivo, 0.5 h
[23] = test system: Rattus norvegicus; experiment: Toxicity in anaesthetized-Wistar rat assessed as P-Q ECG interval at 40 mg/kg, ip after 45 mins (reference value: 52.5 +/- 0.780 ms); assay type: organism-based; design: dose 40 mg/kg, route intraperitoneal; settings: in vivo, 0.75 h
[24] = test system: Rattus norvegicus; experiment: Toxicity in anaesthetized-Wistar rat assessed as QRS ECG interval at 40 mg/kg, ip after 45 mins (reference value: 20.2 +/- 1.348 ms); assay type: organism-based; design: dose 40 mg/kg, route intraperitoneal; settings: in vivo, 0.75 h
[25] = test system: Rattus norvegicus; experiment: Toxicity in anaesthetized-Wistar rat assessed as Q-T ECG interval at 40 mg/kg, ip after 45 mins (reference value: 78.8 +/- 0.927 ms); assay type: organism-based; design: dose 40 mg/kg, route intraperitoneal; settings: in vivo, 0.75 h
[26] = test system: Rattus norvegicus; experiment: Toxicity in anaesthetized-Wistar rat assessed as P-Q ECG interval at 40 mg/kg, ip after 60 mins (reference value: […] +/- 0.924 ms); assay type: organism-based; design: dose 40 mg/kg, route intraperitoneal; settings: in vivo, 1 h
[27] = test system: Rattus norvegicus; experiment: Toxicity in anaesthetized-Wistar rat assessed as QRS ECG interval at 40 mg/kg, ip after 60 mins (reference value: 19.3 +/- 0.873 ms); assay type: organism-based; design: dose 40 mg/kg, route intraperitoneal; settings: in vivo, 1 h
[28] = test system: Rattus norvegicus; experiment: Toxicity in anaesthetized-Wistar rat assessed as Q-T ECG interval at 40 mg/kg, ip after 60 mins (reference value: 79.7 +/- 0.965 ms); assay type: organism-based; design: dose 40 mg/kg, route intraperitoneal; settings: in vivo, 1 h
[29] = test system: Rattus norvegicus; experiment: Toxicity in […] normotensive Wistar rat assessed as mean arterial pressure at 40 mg/kg, ip measured immediately at 0 min (reference value: 94.21 +/- 2.065 mmHg); assay type: organism-based, Artery; design: dose 40 mg/kg, route intraperitoneal; settings: in vivo, 0 h
[30] = test system: Rattus norvegicus; experiment: Toxicity in […] normotensive Wistar rat assessed as mean arterial pressure at 40 mg/kg, ip after 15 mins (reference value: 93.81 +/- 1.543 mmHg); assay type: organism-based, Artery; design: dose 40 mg/kg, route intraperitoneal; settings: in vivo, 0.25 h
[31] = test system: Rattus norvegicus; experiment: Toxicity in […] normotensive Wistar rat assessed as mean arterial pressure at 40 mg/kg, ip after 30 mins (reference value: 94.68 +/- 1.213 mmHg); assay type: organism-based, Artery; design: dose 40 mg/kg, route intraperitoneal; settings: in vivo, 0.5 h
[32] = test system: Rattus norvegicus; experiment: Toxicity in […] normotensive Wistar rat assessed as mean arterial pressure at 40 mg/kg, ip after 45 mins (reference value: 94.83 +/- 0.943 mmHg); assay type: organism-based, Artery; design: dose 40 mg/kg, route intraperitoneal; settings: in vivo, 0.75 h

CC(C)N1CCN(CC(O)CN2C(=O)/C(=C\c3ccccc3)S/C2=N\c2ccccc2)CC1 (stereo unspecified)
Activity [1]: 76.27 mmHg | Activity [2]: 193.37 mmHg | Activity [3]: 185.53 mmHg | Activity [4]: 161.56 mmHg | Activity [5]: 146.51 mmHg | Activity [6]: 160.84 mmHg | Activity [7]: 310.34 bpm | Activity [8]: 298.46 bpm | Activity [9]: 272.41 bpm | Activity [10]: 253.26 bpm | Activity [11]: 302.92 bpm | Time [12]: 354.8 s | Time [13]: 1213.7 s | Activity [14]: 53.5 ms | Activity [15]: 23.3 min | Activity [16]: 76 min | Activity [17]: 53.9 min | Activity [18]: 23.7 min | Activity [19]: 76.2 min | Activity [20]: 54.1 min | Activity [21]: 24.1 ms | Activity [22]: 76.6 min | Activity [23]: 55.2 min | Activity [24]: 24.6 min | Activity [25]: 77.1 min | Activity [26]: 55.6 min | Activity [27]: 24.8 min | Activity [28]: 77.4 ms | Activity [29]: 92.09 mmHg | Activity [30]: 79.32 mmHg | Activity [31]: 62.08 mmHg | Activity [32]: 65.43 mmHg

O=C1/C(=C\c2ccccc2)S/C(=N\c2ccccc2)N1CC(O)CN1CCN(C2CCCCC2)CC1 (stereo unspecified)
Activity [1]: 75.43 mmHg | Activity [2]: 195.99 mmHg | Activity [3]: 185.69 mmHg | Activity [4]: 151.12 mmHg | Activity [5]: 138.63 mmHg | Activity [6]: 158.39 mmHg | Activity [7]: 324.13 bpm | Activity [8]: 312.65 bpm | Activity [9]: 289.54 bpm | Activity [10]: 294.42 bpm | Activity [11]: 303.42 bpm | Time [12]: 297.5 s | Time [13]: 944.9 s | Activity [14]: 51.2 ms | Activity [15]: 20 min | Activity [16]: 72.8 min | Activity [17]: 51.7 min | Activity [18]: 21.4 min | Activity [19]: 72.9 min | Activity [20]: 52.3 min | Activity [21]: 21.9 ms | Activity [22]: 73.3 min | Activity [23]: 50.6 min | Activity [24]: 22.8 min | Activity [25]: 0.00122 min | Activity [26]: 51.3 min | Activity [27]: 22.6 min | Activity [28]: 71.2 ms | Activity [29]: 93.99 mmHg | Activity [30]: 85.61 mmHg | Activity [31]: 77.84 mmHg | Activity [32]: 64.01 mmHg

O=C1/C(=C\c2ccccc2)S/C(=N\c2ccccc2)N1CC(O)CN1CCCCC1 (stereo unspecified)
Activity [1]: 76.12 mmHg | Activity [2]: 194.76 mmHg | Activity [3]: 165.33 mmHg | Activity [4]: 134.16 mmHg | Activity [5]: 145.87 mmHg | Activity [6]: 166.84 mmHg | Activity [7]: 308.43 bpm | Activity [8]: 297.54 bpm | Activity [9]: 268.74 bpm | Activity [10]: 274.15 bpm | Activity [11]: 303.32 bpm | Time [12]: 279.3 s | Time [13]: 886.9 s | Activity [14]: 52.2 ms | Activity [15]: 20.2 min | Activity [16]: 72.7 min | Activity [17]: 51.7 min | Activity [18]: 21.5 min | Activity [19]: 72.9 min | Activity [20]: 51.9 min | Activity [21]: 21.9 ms | Activity [22]: 73.3 min | Activity [23]: 50.6 min | Activity [24]: 22.8 min | Activity [26]: 51.5 min | Activity [27]: 22.6 min | Activity [28]: 71.8 ms | Activity [29]: 94.65 mmHg | Activity [30]: 82.63 mmHg | Activity [31]: 72.76 mmHg | Activity [32]: 64.69 mmHg

CN1CCN(CC(O)CN2C(=O)/C(=C\c3ccccc3)S/C2=N\c2ccccc2)CC1 (stereo unspecified)
Activity [1]: 74.63 mmHg | Activity [2]: 196.43 mmHg | Activity [3]: 182.76 mmHg | Activity [4]: 157.99 mmHg | Activity [5]: 134.44 mmHg | Activity [6]: 162.19 mmHg | Activity [7]: 305.65 bpm | Activity [8]: 290.24 bpm | Activity [9]: 256.32 bpm | Activity [10]: 283.56 bpm | Activity [11]: 302.28 bpm | Time [12]: 349.7 s | Time [13]: 1276 s | Activity [14]: 53 ms | Activity [15]: 22.4 min | Activity [16]: 74.5 min | Activity [17]: 53.2 min | Activity [18]: 22.6 min | Activity [19]: 74.8 min | Activity [20]: 54.4 min | Activity [21]: 23.2 ms | Activity [22]: 75.2 min | Activity [23]: 54.9 min | Activity [24]: 23.6 min | Activity [26]: 55.6 min | Activity [27]: 24 min | Activity [28]: 75.6 ms | Activity [29]: 91.93 mmHg | Activity [30]: 79.37 mmHg | Activity [31]: 63.43 mmHg | Activity [32]: 64.51 mmHg
